Experimental data taken from patent US20150141460A1, “Anti-inflammatory Compositions” (Cambridge Enterprise Limited, priority 2007, published 2015).

Assays:
[1] = test system: CD4+ splenocytes (IFN-γ / IL-4); experiment: Ovalbumin-induced model of asthma, T-helper cell polarisation (Th1/Th2 ratio) of CD4+ splenocytes by flow cytometry; type: in vivo, Brown Norway rats; details: 0.3 mg/kg daily via the oral route
Description: Bars represent mean Th1/Th2 ratios, shown on the Y-axis, for groups of 10 animals, whiskers represent SEM; * p<0.05 versus unchallenged rats; † p<0.05 versus sensitised and challenged rats, in both cases using Student's unpaired t-test assuming equal variance, with two tails). All rats (except the ‘BN rats’ group, which was not exposed to ovalbumin) received the same sensitisation and challenge regimen, but were either treated with vehicle only (‘Sensitised+vehicle’), or with compound (I′) at 0.3 mg/kg bodyweight or with monteleukast (‘Singulair™’) at 30 mg/kg bodyweight, all administered daily by oral gavage.
Adult Brown Norway rats (200-300 g body weight; n=10 per group) were sensitised by a single intraperitoneal injection of 0.1 mg Ovalbumin on day 0. Each rat then received an intratracheal challenge with a solution of 1% ovalbumin (w/v) on day 8, and with 2% ovalbumin (w/v) on days 15, 18 and 21. The animals were then sacrificed 3 hours after the final challenge on day 21. […]
The spleen was also removed from each […] and placed in RPMI+10% FCS+antibiotics. […] The resulting cell suspension was then centrifuged (328 g; 5 mins) and washed in RPMI+10% FCS+antibiotics, before being resuspended in fresh media and counted using a haemocytometer. […]

[2] = test system: chemokine-induced migration; experiment: BSCI potency: inhibition of chemokine-induced migration in vitro (general statements); type: cell-based

SMILES: CC(C)(C)C(=O)N[C@H]1CCCNC1=O [Compound (I′), (S)-3-(2′,2′-dimethylpropanoylamino)-tetrahydropyridin-2-one]
- effect on Th2 polarisation (Th1/Th2 ratio) [1]: significantly reversed the Th2 polarisation
- potency as a BSCI, fold more potent than the (R)-enantiomer [2]: 5-25 fold
